Data set [1] has as its system patients with light and moderate diastolic hypertension. Kind of data set: Clinical trial study of Example 5 (compound preparation 5 mg lercanidipine + 20 mg losartan vs single drugs and amlodipine). The data set is classed as in vivo, human. Particulars: for Diastolic blood pressure Value changed / Systolic blood pressure Value changed: before treatment vs end of week 12; for Diastolic blood pressure Before dosing / Systolic blood pressure Before dosing: before treatment, mean ± SD; for Diastolic blood pressure After dosing / Systolic blood pressure After dosing: once daily. The protocol:
After 14-20 days of washing stage, entering 14-30 days of introduction stage, during which single blinded placebos were taken. Blood pressures were measured in a return visit in every 7-10 days. Suitable patients were divided into treatment groups according to random principle.
1.3 Observation indicators and method: blood, pressures were measured as per the requirements of international standard. A settled physician would follow up once a week and visited from 9:00 to 11:00. Every time heart rate and sitting blood pressure were measured 3 times and the 2 greater values were taken to calculate the mean value.
(§1) 1.4 Laboratory examinations: electrocardiogram, blood and urine routine, liver and kidney function, blood sugar, blood lipid and blood electrolyte examinations were performed before and after overall patient trial.
(§2) 1.6 Data processing and statistical method: the measurement data were calculated as mean±standard variation. Paired t-test was used to compare the quantitative indicators before and after the 4 treatment patterns. Chi-square test was used to compare the difference before and after administration.

The test system is the same in data set [2]. Kind of data set: Clinical trial study of Example 6 (compound preparation 7.5 mg lercanidipine + 20 mg losartan vs single drugs). In kind it is in vivo, human. Particulars: for Diastolic blood pressure Value changed / Systolic blood pressure Value changed: before treatment vs end of week 12; for Diastolic blood pressure Before dosing / Systolic blood pressure Before dosing: before treatment, mean ± SD.
Source text: 1.1 Selection of cases: patients aged from 18-75 years old with light and moderate diastolic hypertension (supine diastolic blood pressure 95-115 mmHg), excluding severe hypertension (diastolic blood pressure >115 mmHg), secondary hypertension, heart disease, myocardial infarction, shock, transient ischemic stroke within the past 3 months, sinus bradycardia or sinus tachycardia, hypovolemia, liver and kidney dysfunction and diabetes. After 14-20 days of washing stage, entering 14-30 days of introduction stage, during which single blinded placebos were taken. Blood pressures were measured in a return visit in every 7-10 days. Suitable patients were divided into treatment groups according to random principle.
1.2 Trial method: there were totally 359 patients enrolled, and 305 patients entered the introduction stage and 266 entered the assessment stage.
1.3 Observation indicators and method: blood pressures were measured as per the requirements of international standard. A settled physician would follow up once a week and visited from 9:00 to 11:00. Every time heart rate and sitting blood pressure were measured 3 times and the 2 greater values were taken to calculate the mean value.
as §1
1.5 Curative effect assessment: according to the regulations of The National Cardiovascular Epidemiology and Population Prevention report meeting summary in 1979: (1) markedly effective: diastolic blood pressure was decreased by ≧10 mmHg, and was decreased to normal (<90 mmHg) or decreased by more than 20 mmHg; (2) effective: diastolic blood pressure was decreased by 10-19 mmHg or was decreased by <10 mmHg, but reached normal; (3) failure: not reached above criteria.
as §2

Counter-ions that a name gives are not always drawn.

As for `CCCCc1nc(Cl)c(CO)n1Cc1ccc(-c2ccccc2-c2nn[nH]n2)cc1` [losartan], the “cases occurring gastrointestinal tract symptoms” value in data set [1] (12 weeks of treatment) was “four”; in data set [2] (12 weeks of treatment), “two”. Further, the “cases of dry mouth” value in data set [1] (12 weeks of treatment) and in data set [2] (12 weeks of treatment) was “one” each time. Besides, the “Diastolic blood pressure Value changed” value was determined as 11 ± 5 mmHg in data set [1] and 14 ± 5 mmHg in data set [2]. Moreover, the “Systolic blood pressure Value changed” value in data set [1] came to 15 ± 9 mmHg; in data set [2], 17 ± 5 mmHg. For the same molecule, the “Diastolic blood pressure Before dosing” value came to 100 ± 5 mmHg in data set [1] and 102 ± 6 mmHg in data set [2]. Moreover, the figures for the “Systolic blood pressure Before dosing” value in data set [1] and in data set [2] were 152 ± 9 mmHg and 152 ± 7 mmHg, respectively. Besides, the “Diastolic blood pressure After dosing” value worked out at 81 ± 9 mmHg in data set [1] (end of week 12 of treatment) and 83 ± 8 mmHg in data set [2] (end of week 12 of treatment). Further, the “Systolic blood pressure After dosing” value came to 138 ± 6 mmHg in data set [1] (end of week 12 of treatment) and 139 ± 5 mmHg in data set [2] (end of week 12 of treatment). In addition, the “Effective rate (total effective rate for decreasing blood pressure)” value is 75.1% in data set [1] (end of week 12 of treatment; criteria of b72; listed as 3)); 75.1% in data set [1] (end of week 12 of treatment, criteria of b72, listed as lorsartan); 77.3% in data set [2] (end of week 12 of treatment; criteria of b91; listed as 3)); 77.3% in data set [2] (end of week 12 of treatment, criteria of b91, listed as lorsartan).

Take `COC(=O)C1=C(C)NC(C)=C(C(=O)OC(C)(C)CN(C)CCC(c2ccccc2)c2ccccc2)C1c1cccc([N+](=O)[O-])c1` (stereo not shown) [lercanidipine hydrochloride]: the “cases occurring gastrointestinal tract symptoms” value in data set [1] (12 weeks of treatment) is “two”; in data set [2] (12 weeks of treatment) it was “one”. Besides, the cases of dizziness result in data set [1] (12 weeks of treatment) and in data set [2] (12 weeks of treatment) was “one” throughout. The “Diastolic blood pressure Value changed” value is 13 ± 8 mmHg in data set [1] and 16 ± 6 mmHg in data set [2]. In addition, the figures for the “Systolic blood pressure Value changed” value in data set [1] and in data set [2] were 19 ± 3 mmHg and 19 ± 7 mmHg, respectively. Moreover, the “Diastolic blood pressure Before dosing” value in data set [1] is on record as 104 ± 9 mmHg; in data set [2], 106 ± 8 mmHg. Further, the figures for the “Systolic blood pressure Before dosing” value in data set [1] and in data set [2] were 152 ± 9 mmHg and 156 ± 8 mmHg, respectively. For the same molecule, the “Diastolic blood pressure After dosing” value in data set [1] (end of week 12 of treatment) amounted to 88 ± 7 mmHg; in data set [2] (end of week 12 of treatment) it was 89 ± 7 mmHg. The “Systolic blood pressure After dosing” value in data set [1] (end of week 12 of treatment) is on record as 139 ± 8 mmHg; in data set [2] (end of week 12 of treatment), 136 ± 7 mmHg. Further, the “Effective rate (total effective rate for decreasing blood pressure)” value in data set [1] (end of week 12 of treatment, criteria of b72, hydrochloride) is listed as 70.8%; in data set [1] (end of week 12 of treatment; criteria of b72; listed as 2), hydrochloride), 70.8%; in data set [2] (end of week 12 of treatment, criteria of b91, hydrochloride) it was 71.6%; in data set [2] (end of week 12 of treatment; criteria of b91; listed as 2), hydrochloride) it was 71.6%.

For the origin of these results see patent US20150079183A1, “Lercanidipine Hydrochloride and Losartan Potassium Compound Preparation and Preparation Method Thereof” (Zhaoke Pharmaceutical (Hefei) Company Limited, priority 2012, published 2015).
